From patent US5721106A, “In Vitro method for screening β-amyloid deposition” (Regents of the University of Minnesota, priority 1994, dated 1998) come the findings set out here.

In assay [1] the test system is AD plaques. As to the kind of experiment: Deposition of ^125 I-labelled β-amyloid peptides onto plaques in AD brain tissue (homogenate binding, autoradiography). Details: species or system human. The following applies: for deposition activity of fragment (active / not active): labelled fragment combined with AD amyloid plaque or silk, relative to βA(1-40)-OH; for plaque competence as a function of pH: growth of tissue plaques by deposition of labelled peptides from solution; for activity relative to the full length peptide βA(1-40)-OH: plaque deposition on AD brain sections, two hours, densitometry of autoradiograms. Here is the method:
Fragments labelled in accordance with the method described herein can be combined with amyloid plaque derived from Alzheimer's disease tissue or other amyloid substance such as silk, and tested for activity, for example, their ability to deposit on these materials.
Brain tissue was obtained form normal and Alzheimer's disease patients at 0.5 to 14 hours postmortem, frozen on dry ice after collection, and stored at -20° C. until use. For filter binding studies, tissue homogenates were prepared after the method of H. P. Too and M. R. Hanley, Biochem. J. 252:545 (1988), the disclosure of which is incorporated by reference herein. Tissue was homogenized (Polytron, setting 7-8, 5-10 sec) in 5-10 volumes of 50 mM Tricine (pH 7.5) containing 10% sucrose and protease inhibitors (0.01% bacitracin, 0.002% soybean trypsin inhibitor, 0.0002% chicken egg trypsin inhibitor, 1 mM benzamidine hydrochloride) and pelleted at 10,000 g for 20 minutes. The homogenate was then resuspended and washed several times in Tricine buffer containing 120 mM NaCl, 10 mM EDTA, 300 mM KCl and centrifuged at 40,000 g for 20 minutes and stored at -20° C. for less than two months. Membranes (equivalent to about 30 mg tissue) were resuspended in 0.5 ml 50 mM TrisHCl (pH 7.5) containing 1 mg/ml bovine serum albumin (BSA), 10 mM MnCl2, 0.004% bacitracin, 0.002% chymostatin, 0.004% leupeptin, 0.1% dimethylsulfoxide for 30 minutes prior to addition of the radioligand (10^-11 to 10^-9 M) and various concentrations of unlabelled peptides in the same buffer.
After incubating for two hours at room temperature, the homogenates (final volume 0.575 ml) were filtered through glass fiber filters (Whatman GF/D), presoaked for at least two hours in 1 mg/ml BSA and rinsed with 25 mM Tricine (pH 7.5). After washing twice with 25 mM TrisHCl (pH 7.5) at room temperature, the filters were counted in a gamma counter.
For tissue autoradiography, unfixed tissue was serially sectioned at 5-15 μm and thaw-mounted onto gelatin-coated slices. Slide-mounted sections were stored at -20° C. in closed boxes over desiccant for less than three months before use. Sections were preincubated for 30 minutes and incubated with the radioligand for two hours under the same conditions according to the aforedescribed homogenate binding study. Alternatively, 50 mM TrisHCl rather than Tricine may be used as the buffer. For estimating nonspecific binding, paired serial sections were incubated with the radioligand in the presence of a 10^4 to 10^5 fold excess of the unlabelled peptide. Following incubation with the radioligand, the slides were washed with 50 mM TrisHCl pH 7.5 (four times, two minutes each at 4° C.), then dried at 4° C. and stored in closed boxes over desiccant at room temperature overnight. The fully dried slides were then placed in apposition to tritium-sensitive film alongside iodinated standards. After one week's exposure at -20° C., the film was developed, fixed and washed. […] This approach generated film autoradiograms for quantitative densitometry,a high resolution emulsion autoradiograms for detailed histology, and a counterstained section for identification of cell types from each tissue section.
Briefly peptides were purchased or synthesized by fluorenemethoxycarbonyl chemistry on polystyrene resins, using acid-labile blocking groups for sidechain protection, cleaved with trifluoroacetic acid, and purified by RP-HPLC. […] Autoradiograms were quantitated by densitometry. […] To study the peptide fragments in water we developed a novel approach, measuring NMR data at 750 MHz using a prototype 10 mm ^1 H pulsed field gradient probe. Modified two-dimensional homonuclear TOCSY and NOESY experiments were measured at several pH values and structural information was derived using standard methods.

The subject of assay [2] is AD plaques. The assay is described as above. Further details: species or system human. The following applies: for plaque deposition (plaque competence) at pH 3.9: quantitative densitometry of autoradiograms; for plaque deposition at pH 5.8: 100% = deposition of ^125 I-βA(1-40)-OH at pH 7.4.
The next assay concerns tissue plaques. Description: Effect of metal ions, chelating agent and detergents on deposition of labelled peptide on tissue plaques. The format is binding, human. The text has this:
A deposition-enhancing agent may be added prior to the addition of the deposition-affecting agent to be tested.

Ends that are not written are not given here. Peptide text beside a SMILES is read from it. * marks the point of attachment. PEG = not defined here; 125I = [125I]* Some results are limits rather than exact numbers.

With `CC[C@H](C)[C@H](NC(=O)[C@H](C)NC(=O)CNC(=O)[C@H](CCCCN)NC(=O)[C@H](CC(=O)O)NC(=O)[C@H](CO)NC(=O)CN)C(=O)N[C@H](C(=O)NCC(=O)N[C@@H](CC(C)C)C(=O)N[C@@H](CCSC)C(=O)O)[C@@H](C)CC` [D27-βA(25-35)-OH] (H-GSDKGAIIGLM-OH), the “deposition activity of fragment (active / not active)” value in the assay on AD plaques [1] is recorded as “not active (exhibit less than about 1% of the deposition level of βA(1-40)OH)”.
Same read-out and setting: with “βA(1-40)-PEG: β-amyloid peptide 1-40 conjugated to polyethylene glycol at the C-terminus” the entry was “active”; with “(des-A2)-βA(1-40)-OH: 39-mer lacking the alanine at position 2”, “active”.
Regarding “βA(10-35)-OH: β-amyloid fragment residues 10-35, free carboxyl terminus (YEVHHQKLVFFAEDVGSNKGAIIGLM-OH)”, the “deposition activity of fragment (active / not active)” value with AD plaques [1] is listed as “active”.
“^125 I-βA(10-35)-NH2: ^125 I-labelled βA(10-35)-NH2, labelled at Tyr10 (Y(125I)EVHHQKLVFFAEDVGSNKGAIIGLM-NH2)”: in the assay with AD plaques [2], the “plaque deposition (plaque competence) at pH 3.9” value is “plaque-incompetent” and the “plaque deposition at pH 5.8” value amounted to 30%.
Regarding “βA(10-35)-NH2: 26 residue carboxyamidated fragment from the central region of the βA sequence (YEVHHQKLVFFAEDVGSNKGAIIGLM-NH2; also: 125I at Tyr10 as tracer (name unlabelled))”, in the assay on AD plaques [1], the “plaque competence as a function of pH” value is recorded as “plaque-competent within the pH range of 5 to 9”, the “deposition activity of fragment (active / not active)” value is reported as “active” and the “activity relative to the full length peptide βA(1-40)-OH” value is reported as “about 35%”. For the same compound, the “activity as fraction of the activity of βA(1-40)-OH” value in the assay with AD plaques [1] (physiological (subnanomolar) peptide concentration) is reported as “about 1/3”.
Take “^125 I-βA(1-28)-OH: ^125 I-labelled βA(1-28)-OH”: in the assay with AD plaques [2], the “plaque deposition (plaque competence) at pH 3.9” value is “plaque-incompetent” and the “plaque deposition at pH 5.8” value was less than 1%.
In the case of `CCCCCCCCCCCC[N+](C)(C)CCCS(=O)(=O)[O-]` [Zwittergent 312], the “effect of detergent on deposition of labelled peptide on tissue plaques” value in the assay on tissue plaques is “no effect”.
As for “PEG-βA(10-35)-NH2: polyethylene glycol conjugate of βA(10-35)-NH2 ({PEG}-YEVHHQKLVFFAEDVGSNKGAIIGLM-NH2; reading uncertain)”, the “deposition activity of fragment (active / not active)” value in the assay with AD plaques [1] is listed as “not active (exhibit less than about 1% of the deposition level of βA(1-40)OH)”.
`CC(C)C[C@H](NC(=O)[C@H](CCCCN)NC(=O)[C@H](CCC(N)=O)NC(=O)[C@H](Cc1c[nH]cn1)NC(=O)[C@H](Cc1c[nH]cn1)NC(=O)[C@@H](NC(=O)[C@@H](N)CCC(=O)O)C(C)C)C(=O)N[C@H](C(=O)N[C@@H](Cc1ccccc1)C(=O)N[C@@H](Cc1ccccc1)C(=O)N[C@@H](C)C(=O)N[C@@H](CCC(=O)O)C(=O)N[C@@H](CC(=O)O)C(=O)N[C@H](C(=O)NCC(=O)O)C(C)C)C(C)C` [βA(11-25)-OH]: the “deposition activity of fragment (active / not active)” value in the assay with AD plaques [1] is recorded as “not active (exhibit less than about 1% of the deposition level of βA(1-40)OH)”.
On to `O=C(O)CN(CCN(CC(=O)O)CC(=O)O)CC(=O)O` [EDTA, ethylene diamine tetraacetic acid], for which the “inhibition of the rate of deposition of labelled peptide” value with tissue plaques (0.1 mM) was “five-fold”.
Turning to “βA(1-28)-OH: 28 residue fragment corresponding to the amino terminal region”, in the assay with AD plaques [1], the “plaque competence as a function of pH” value is “inactive at all pH values tested”, the “deposition activity of fragment (active / not active)” value was “not active (exhibit less than about 1% of the deposition level of βA(1-40)OH)” and the “activity relative to the full length peptide βA(1-40)-OH” value was “less than 1%”.
With “βA(1-35)-NH2: carboxyamidated β-amyloid fragment, residues 1-35”, the “deposition activity of fragment (active / not active)” value with AD plaques [1] is “active”.
